Consider six substances from US9833497B2, “Human originated EGF domain proteins and use of the same” (CHENGDU SOURCEBIO LIMITED-LIABILITY COMPANY, priority 2013, dated 2017).

Holding throughout (assay type): cell-based
One assay relates to E. coli DH5α. Kind of assay: Antibacterial activity: MIC and growth curve against E. coli DH5α in 96-well plate. To be noted: minimal inhibitory concentration against E. coli DH5α; 96-well plate, 5×10^5 CFU/mL, 37° C., judged after 8 h. A digest of the protocol:
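Log-phase DH5α (OD600 about 0.5, 37° C, 185 rpm in LB) was pelleted, resuspended in fresh LB and seeded at 5×10^5 CFU/mL with recombinant protein at 50, 25 and 12.5 μg/mL (two-fold series), in triplicate. Plates were shaken at 175 rpm, 37° C, and OD600 was read every 30 min. MIC was the lowest concentration with no growth.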

A further assay concerns E. coli BL21. In words: MIC against Gram-negative bacteria: E. coli BL21. To be noted: 5×10^5 CFU/mL. A digest of the protocol: (§1)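 Broth microdilution, LB medium, final inoculum 5×10^5 CFU/mL from McFarland 0.5 cultures. Recombinant human EGF domain proteins tested in two-fold steps, n=3. MIC: lowest concentration, no growth.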
In the next assay the test system is Pseudomonas aeruginosa. Kind of assay: MIC against Gram-negative bacteria: Pseudomonas aeruginosa. To be noted: 5×10^5 CFU/mL. Put shortly: as §1
A further assay has as its system Klebsiella pneumonia. Kind of assay: MIC against Gram-negative bacteria: Klebsiella pneumonia. As to conditions: 5×10^5 CFU/mL. Put shortly: as §1
For another assay, the system named is Enterobacter cloacae. In words: MIC against Gram-negative bacteria: Enterobacter cloacae. To be noted: 5×10^5 CFU/mL. Put shortly:
as §1

In a further assay the test system is Aeromonas hydrophila. Kind of assay: MIC against Gram-negative bacteria: Aeromonas hydrophila. To be noted: 5×10^5 CFU/mL. Put shortly:
as §1

A further assay relates to Citrobacter diversus. Kind of assay: MIC against Gram-negative bacteria: Citrobacter diversus. As to conditions: 5×10^5 CFU/mL. A digest of the protocol: as §1
The next assay concerns Moraxella catarrhalis. Kind of assay: MIC against Gram-negative bacteria: Moraxella catarrhalis. To be noted: 5×10^5 CFU/mL. Put shortly:
as §1

The test system of another assay is Proteus mirabilis. Kind of assay: MIC against Gram-negative bacteria: Proteus mirabilis. To be noted: 5×10^5 CFU/mL. Put shortly: as §1
The next assay relates to Proteus vulgaris. Kind of assay: MIC against Gram-negative bacteria: Proteus vulgaris. To be noted: 5×10^5 CFU/mL. A digest of the protocol: as §1
Another assay relates to Serratia marcescens. Kind of assay: MIC against Gram-negative bacteria: Serratia marcescens. As to conditions: 5×10^5 CFU/mL. A digest of the protocol: as §1
Where [1] appears, read: E. coli BL21, 96-well plate, 37° C., 10 h.
[2] abbreviates: Pseudomonas aeruginosa, 96-well plate, 37° C., 10 h.
The mark [3] stands for this setting: Klebsiella pneumonia, 96-well plate, 37° C., 10 h.
[4] abbreviates: Enterobacter cloacae, 96-well plate, 37° C., 10 h.
[5] abbreviates: Aeromonas hydrophila, 96-well plate, 37° C., 10 h.
Setting [6] is: Citrobacter diversus, 96-well plate, 37° C., 10 h.
[7] abbreviates: Moraxella catarrhalis, 96-well plate, 37° C., 10 h.
Where [8] appears, read: Proteus mirabilis, 96-well plate, 37° C., 10 h.
[9] abbreviates: Proteus vulgaris, 96-well plate, 37° C., 10 h.
[10] abbreviates: Serratia marcescens, 96-well plate, 37° C., 10 h.

“PRT1244 (CGSTCPTCVQGSCDTVTGDCVCSAGYWGPSCN; listed as Homo sapiens)” returned a minimum inhibitory concentration (MIC) against E. coli DH5α of 50 mg/L. Further, the “MIC against E. coli BL21” value in the assay on E. coli BL21 (setting [1]) is 12.5 mg/L. In the assay with Pseudomonas aeruginosa (setting [2]), the “MIC against P. aeruginosa” value worked out at 50 mg/L. In addition, the “MIC against K. pneumonia” value against Klebsiella pneumonia (setting [3]) was determined as 12.5 mg/L. Moreover, in the assay with Enterobacter cloacae (setting [4]), the “MIC against E. cloacae” value worked out at 12.5 mg/L. The “MIC against A. hydrophila” value in the assay on Aeromonas hydrophila (setting [5]) stood at 50 mg/L. Further, the “MIC against C. diversus” value with Citrobacter diversus (setting [6]) was 25 mg/L. Further, the “MIC against M. catarrhalis” value in the assay on Moraxella catarrhalis (setting [7]) came to 12.5 mg/L. Moreover, the “MIC against P. mirabilis” value against Proteus mirabilis (setting [8]) was found to be 25 mg/L. Further, in the assay on Proteus vulgaris (setting [9]), the “MIC against P. vulgaris” value stood at 50 mg/L. In the assay with Serratia marcescens (setting [10]), the “MIC against S. marcescens” value is 12.5 mg/L.
“PRT766 (GKDQCAEGGHGCQHQCVNAWAMFHCTCNPGYKLAADNKSCL; listed as Homo sapiens)” showed an MIC with E. coli DH5α of 25 mg/L. Also, the “MIC (μg/mL) E. coli BL21” value in the assay on E. coli BL21 (E. coli BL21, 10 h cultivation at 37° C.) is 50 µg/mL. Also, the “MIC (μg/mL) P. aeruginosa” value against Pseudomonas aeruginosa (P. aeruginosa, 10 h cultivation at 37° C.) was 25 µg/mL. Besides, the “MIC (μg/mL) K. pneumonia” value in the assay on Klebsiella pneumonia (K. pneumonia, 10 h cultivation at 37° C.) stood at 12.5 µg/mL. Moreover, the “MIC (μg/mL) E. cloacae” value with Enterobacter cloacae (E. cloacae, 10 h cultivation at 37° C.) amounted to 50 µg/mL. In addition, the “MIC (μg/mL) A. hydrophila” value against Aeromonas hydrophila (A. hydrophila, 10 h cultivation at 37° C.) was found to be 25 µg/mL. Besides, the “MIC (μg/mL) C. diversus” value with Citrobacter diversus (C. diversus, 10 h cultivation at 37° C.) came out at 12.5 µg/mL. Moreover, the “MIC (μg/mL) M. catarrhalis” value in the assay on Moraxella catarrhalis (M. catarrhalis, 10 h cultivation at 37° C.) was found to be 25 µg/mL. Besides, in the assay on Proteus mirabilis (P. mirabilis, 10 h cultivation at 37° C.), the “MIC (μg/mL) P. mirabilis” value amounted to 50 µg/mL. The “MIC (μg/mL) P. vulgaris” value in the assay with Proteus vulgaris (P. vulgaris, 10 h cultivation at 37° C.) was 25 µg/mL. For the same substance, the “MIC (μg/mL) S. marcescens” value in the assay on Serratia marcescens (S. marcescens, 10 h cultivation at 37° C.) was found to be 12.5 µg/mL.
“PRT1258 (GRTCIETCAVNNGGCDRTCKDTATGVRCSCPVGFTLQPD; listed as Homo sapiens)” displayed an MIC with E. coli DH5α of 12.5 mg/L. Further, in the assay on E. coli BL21 (setting [1]), the “MIC against E. coli BL21” value was 25 mg/L. Also, in the assay with Pseudomonas aeruginosa (setting [2]), the “MIC against P. aeruginosa” value stood at 50 mg/L. Besides, the “MIC against K. pneumonia” value with Klebsiella pneumonia (setting [3]) turned out to be 25 mg/L. Besides, in the assay on Enterobacter cloacae (setting [4]), the “MIC against E. cloacae” value was 12.5 mg/L. For the same substance, in the assay with Aeromonas hydrophila (setting [5]), the “MIC against A. hydrophila” value amounted to 25 mg/L. Moreover, the “MIC against C. diversus” value with Citrobacter diversus (setting [6]) came out at 50 mg/L. The “MIC against M. catarrhalis” value in the assay on Moraxella catarrhalis (setting [7]) is 12.5 mg/L. Further, in the assay with Proteus mirabilis (setting [8]), the “MIC against P. mirabilis” value came to 50 mg/L. In the assay with Proteus vulgaris (setting [9]), the “MIC against P. vulgaris” value was determined as 25 mg/L. Besides, the “MIC against S. marcescens” value with Serratia marcescens (setting [10]) was found to be 12.5 mg/L.
In the assay on E. coli DH5α, “PRT590 (CDCNILGSRRDMPCDEESGRCLCLPNVVGPKCDQCAPYHWKLASGQGCEP; listed as Homo sapiens)” came in with an MIC of 50 mg/L. In the assay on E. coli BL21 (96-well plate, 37° C., 10 h), the “MIC against E. coli BL21” value is 25 mg/L. Further, the “MIC against P. aeruginosa” value in the assay with Pseudomonas aeruginosa (96-well plate, 37° C., 10 h) stood at 12.5 mg/L. Moreover, the “MIC against K. pneumonia” value with Klebsiella pneumonia (96-well plate, 37° C., 10 h) was 25 mg/L. In addition, the “MIC against E. cloacae” value in the assay with Enterobacter cloacae (96-well plate, 37° C., 10 h) turned out to be 50 mg/L. Moreover, the “MIC against A. hydrophila” value against Aeromonas hydrophila (96-well plate, 37° C., 10 h) came out at 25 mg/L. Besides, the “MIC against C. diversus” value with Citrobacter diversus (96-well plate, 37° C., 10 h) turned out to be 12.5 mg/L. Besides, in the assay with Moraxella catarrhalis (96-well plate, 37° C., 10 h), the “MIC against M. catarrhalis” value was 25 mg/L. In the assay on Proteus mirabilis (96-well plate, 37° C., 10 h), the “MIC against P. mirabilis” value amounted to 50 mg/L. In the assay with Proteus vulgaris (96-well plate, 37° C., 10 h), the “MIC against P. vulgaris” value stood at 25 mg/L. In addition, the “MIC against S. marcescens” value against Serratia marcescens (96-well plate, 37° C., 10 h) was determined as 12.5 mg/L.
“PRT1241 (WSSTCRRPCQCNTAAARCEQATGACVCKPGWWGRRCS; listed as Homo sapiens)” had an MIC with E. coli DH5α of 50 mg/L. Further, in the assay with E. coli BL21 (setting [1]), the “MIC against E. coli BL21” value was found to be 25 mg/L. In addition, the “MIC against P. aeruginosa” value against Pseudomonas aeruginosa (setting [2]) stood at 12.5 mg/L. The “MIC against K. pneumonia” value in the assay with Klebsiella pneumonia (setting [3]) worked out at 50 mg/L. The “MIC against E. cloacae” value against Enterobacter cloacae (setting [4]) was 12.5 mg/L. Further, the “MIC against A. hydrophila” value in the assay with Aeromonas hydrophila (setting [5]) stood at 50 mg/L. For the same substance, the “MIC against C. diversus” value against Citrobacter diversus (setting [6]) was 12.5 mg/L. In addition, the “MIC against M. catarrhalis” value in the assay with Moraxella catarrhalis (setting [7]) amounted to 25 mg/L. Moreover, in the assay with Proteus mirabilis (setting [8]), the “MIC against P. mirabilis” value turned out to be 50 mg/L. Further, in the assay with Proteus vulgaris (setting [9]), the “MIC against P. vulgaris” value came to 25 mg/L. Further, in the assay on Serratia marcescens (setting [10]), the “MIC against S. marcescens” value was determined as 12.5 mg/L.
Consider “PRT661 (QAEECGILNGCENGRCVRVREGYTCDCFEGFQLDAAHMACV; listed as Homo sapiens)”, for which the MIC in the assay with E. coli DH5α stood at 50 mg/L. Besides, the “MIC E. coli BL21” value in the assay on E. coli BL21 (96-well plate, 37° C., 10 h) came out at 25 mg/L. Besides, in the assay on Pseudomonas aeruginosa (96-well plate, 37° C., 10 h), the “MIC P. aeruginosa” value worked out at 12.5 mg/L. Further, the “MIC K. pneumonia” value in the assay on Klebsiella pneumonia (96-well plate, 37° C., 10 h) is 25 mg/L. The “MIC E. cloacae” value with Enterobacter cloacae (96-well plate, 37° C., 10 h) is 50 mg/L. Further, the “MIC A. hydrophila” value against Aeromonas hydrophila (96-well plate, 37° C., 10 h) was found to be 25 mg/L. Further, the “MIC C. diversus” value in the assay on Citrobacter diversus (96-well plate, 37° C., 10 h) amounted to 12.5 mg/L. The “MIC M. catarrhalis” value in the assay on Moraxella catarrhalis (96-well plate, 37° C., 10 h) is 25 mg/L. Also, in the assay with Proteus mirabilis (96-well plate, 37° C., 10 h), the “MIC P. mirabilis” value came to 50 mg/L. Also, the “MIC P. vulgaris” value against Proteus vulgaris (96-well plate, 37° C., 10 h) is 25 mg/L. The “MIC S. marcescens” value against Serratia marcescens (96-well plate, 37° C., 10 h) was found to be 25 mg/L.

Usually MIC stands for the lowest concentration found to suppress growth. Read a high MIC as weaker potency.
